Drawing on patent publication US20250114338A1, “TETRAHYDRO-PYRIDO[3,4-b]INDOLE ESTROGEN RECEPTOR MODULATORS AND USES THEREOF” (Genentech, Inc., priority 2014, published 2025), this text covers EC50 for 10 compounds.

The assay deals with ER-alpha MCF7. The assay can be described thus: ER-alpha MCF7 HCS EC50; stated as measured by in vitro cell proliferation assays of Examples 902 and 903. It counts as cell-based. To be noted: Homo sapiens, MCF7, MCF7 cells; Table 2. In short, it runs like this: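 MCF7 cells seeded 1000-2000 cells/well for 16 h, then treated with nine-point 1:2 DMSO dilution series in quadruplicate at 37 °C, 5% CO2 for 4 days. Viable cells quantified by CellTiter-Glo ATP luminescence; EC50 calculated. Controls: fulvestrant at final 100 nM, DMSO 0.2% v/v.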
The term EC50 denotes the midpoint of the concentration-response curve. For the compound `C[C@H](CF)C(=O)N1[C@H](c2c(F)cc(OCCN3CC(CF)C3)cc2F)c2[nH]c3ccccc3c2C[C@H]1C` [Example 218, (S)-1-((1R,3R)-1-(2,6-difluoro-4-(2-(3-(fluoromethyl)azetidin-1-yl)ethoxy)phenyl)-3-methyl-1,3,4,9-tetrahydro-2H-pyrido[3,4-b]indol-2-yl)-3-fluoro-2-methylpropan-1-one], the EC50 was determined as 0.402 nM.
To `C[C@@H]1Cc2c([nH]c3ccccc23)[C@@H](c2c(F)cc(NCCN3CC(CF)C3)cc2F)N1CC(F)(F)F` [Example 296, 3,5-difluoro-N-(2-(3-(fluoromethyl)azetidin-1-yl)ethyl)-4-((1R,3R)-3-methyl-2-(2,2,2-trifluoroethyl)-2,3,4,9-tetrahydro-1H-pyrido[3,4-b]indol-1-yl)aniline] belongs 0.2 nM; to `C[C@@H]1Cc2c([nH]c3ccccc23)[C@@H](c2ccc(NCCN3CC(CF)C3)cc2)N1CC(C)(F)CO` (stereo partly drawn) [Example 328, 2-fluoro-3-((1R,3R)-1-(4-((2-(3-(fluoromethyl)azetidin-1-yl)ethyl)amino)phenyl)-3-methyl-1,3,4,9-tetrahydro-2H-pyrido[3,4-b]indol-2-yl)-2-methylpropan-1-ol], 0.167 nM.
`C[C@@H]1Cc2c([nH]c3ccccc23)[C@@H](c2c(F)cc(OC3CN(CC4(CF)CC4)C3)cc2F)N1CC(C)(C)F` [Example 427, (1R,3R)-1-(2,6-difluoro-4-((1-((1-(fluoromethyl)cyclopropyl)methyl)azetidin-3-yl)oxy)phenyl)-2-(2-fluoro-2-methylpropyl)-3-methyl-2,3,4,9-tetrahydro-1H-pyrido[3,4-b]indole]: the EC50 was 0.278 nM.
As for `C[C@@H]1Cc2c([nH]c3ccccc23)[C@@H](c2c(F)cc(OCCN3CC(CF)C3)cc2F)N1C[C@](C)(O)CO` [Example 271, (S)-3-((1R,3R)-1-(2,6-difluoro-4-(2-(3-(fluoromethyl)azetidin-1-yl)ethoxy)phenyl)-3-methyl-1,3,4,9-tetrahydro-2H-pyrido[3,4-b]indol-2-yl)-2-methylpropane-1,2-diol], the figure is 5 nM; as for `C[C@@H]1Cc2c([nH]c3ccccc23)[C@@H](c2c(F)cc(OCCN3CC(F)(CF)C3)cc2F)N1CC(C)(C)F` [Example 205, (1R,3R)-1-[2,6-difluoro-4-[2-[3-fluoro-3-(fluoromethyl)azetidin-1-yl]ethoxy]phenyl]-2-(2-fluoro-2-methyl-propyl)-3-methyl-1,3,4,9-tetrahydropyrido[3,4-b]indole], 0.375 nM; as for `C[C@@H]1Cc2c([nH]c3ccccc23)[C@@H](c2cc(F)c(OC3CN(CCCCCF)C3)c(F)c2)N1CC(C)(C)F` [Example 338, (1R,3R)-1-[3,5-difluoro-4-[1-(5-fluoropentyl)azetidin-3-yl]oxy-phenyl]-2-(2-fluoro-2-methyl-propyl)-3-methyl-1,3,4,9-tetrahydropyrido[3,4-b]indole], 1 nM.
As for `CCS(=O)(=O)N1[C@H](c2ccc(OCCN3CC(CF)C3)cc2)c2[nH]c3ccccc3c2C[C@H]1C` [Example 324, (1R,3R)-2-ethylsulfonyl-1-[4-[2-[3-(fluoromethyl)azetidin-1-yl]ethoxy]phenyl]-3-methyl-1,3,4,9-tetrahydropyrido[3,4-b]indole], the figure is 0.198 nM; as for `C[C@@H]1Cc2c([nH]c3ccccc23)[C@H](c2ccc(OCCN3CC(CF)C3)cc2)N1S(C)(=O)=O` [Example 179, (1S,3R)-1-[4-[2-[3-(fluoromethyl)azetidin-1-yl]ethoxy]phenyl]-3-methyl-2-methylsulfonyl-1,3,4,9-tetrahydropyrido[3,4-b]indole], 13 nM.
As for `C[C@@H]1Cc2c([nH]c3ccccc23)[C@@H](c2ccc(OC3CN(CCCF)C3)cc2F)N1CC(C)(C)F` [Example 177, (1R,3R)-1-[2-fluoro-4-[1-(3-fluoropropyl)azetidin-3-yl]oxy-phenyl]-2-(2-fluoro-2-methyl-propyl)-3-methyl-1,3,4,9-tetrahydropyrido[3,4-b]indole], the figure is 0.164 nM.
